We go through 2 molecules from patent US20260364213A1, “RADIOLABELED COMPOUNDS OF TRIMETHOPRIM AND USES THEREOF” (THE TRUSTEES OF THE UNIVERSITY OF PENNSYLVANIA, priority 2023, published 2026).

The test system of data set [1] is primary human hepatocytes. The experiment in a line: Hepatocyte spheroid assay (liver metabolite study). The class given is in vitro ADME. As for the experimental part:
Cryopreserved primary human hepatocytes were acquired from ThermoFisher. To each well of a 96 well ultra-low attachment U-bottom plate, 2,000 cells were plated in 200 μL William's E Medium (no phenol red, 20% FBS, 1% penicillin-streptomycin, 1% insulin-transferrin-selenium solution, […], 1% L-glutamine). The plate was centrifuged at 300 rpm for 2 minutes and then incubated without disturbance. After 5 days, 100 μL of spent media was removed and replaced with fresh media. […] The supernatant was then removed and analyzed on an Agilent 1260 Infinity II LC system equipped with an Eckert & Ziegler FlowCountPRO detector.
Specifically, 2,000 cells were plated in 200 μL William's E Medium (no phenol red, 20% FBS, 1% penicillin-streptomycin, 1% insulin-transferrin-selenium solution, […], 1% L-glutamine). […] The supernatant was then removed and analyzed on an Agilent 1260 Infinity II LC system equipped with an Eckert & Ziegler FlowCountPRO detector.
Specifically, cryopreserved hepatocytes were thawed and diluted 1:10 in a 15 mL conical tube with warm culture media (William's E Medium, no phenol red, 20% FBS, 1% penicillin-streptomycin, 1% insulin-transferrin-selenium solution, […], 1% L-glutamine). […] Cells were counted and diluted to a concentration of 10,000 live cells/mL. […] The supernatant was transferred into an autosampler vial and analyzed by HPLC.

The next data set relates to HCT116-eDHFR tumors. As to the kind of experiment: Ex vivo biodistribution in HCT116 tumor-bearing athymic nude mice. Set-up: species or system human. The following applies: 1.85 MBq i.v., 3 hours. As for the experimental part: To evaluate the therapeutic potential [^131I]mI-TMP, sixteen (16) 8- to 12-week-old female athymic nude mice (Charles River Laboratories) were inoculated with 1×10^7 HCT116 tumor cells (eDHFR+ or WT) on the left shoulder. The mice were then divided into two groups: […] (8) mice with HCT116-eDHFR (eDHFR-positive cells) and Eight (8) mice with HCT116-WT (eDHFR-negative) cells.
Ex-vivo biodistribution studies were conducted on three (3) tumor-bearing mice from each group, while the remaining ten (10) mice were used to monitor tumor response to radiotherapy.
Three (3) hours post radiotracer injection mice were euthanized, and organs of interest were harvested for biodistribution quantification. Total radioactive uptake per organ, in counts per minute (CPM), was determined by γ-counter (Perkin Elmer).

For a further data set, the target named is T1, eDHFR (Escherichia coli, UniProt P0ABQ4).
T1 sequence (P0ABQ4 1-159): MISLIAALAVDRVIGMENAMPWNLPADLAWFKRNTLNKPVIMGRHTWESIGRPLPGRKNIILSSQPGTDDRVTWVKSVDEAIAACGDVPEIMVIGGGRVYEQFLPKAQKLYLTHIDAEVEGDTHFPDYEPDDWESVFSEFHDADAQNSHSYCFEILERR
As to the kind of experiment: Uptake and washout in HCT116-eDHFR-Luc vs WT cells. The format is cell-based. Set-up: in CAR T cells fused to C-terminus of CD3zeta of FAP-CAR. As to the method:
The cells were sampled at 1 h, 2 h and 4 h. […] Similarly, the process cells was repeated for 2 h and 4 h samples.
Next, the therapeutic effect of [^131/125I]mI-TMP in a human colorectal carcinoma cell line, HCT116 was analyzed. […] The specificity of radiotracer uptake was determined by blocking conditions. […] See, FIG. 10A.
A washout study was performed to know the retention of the tracer in the cells. HCT116_eDHFR cells were incubated with 0.037 MBq of compound 5b for 20 minutes. The cells were washed, resuspended and sampled at 60, 120 and 240 minutes. […] To examine the radiotherapeutic effect, the incubation period was increased and the dose […]. The cells were dosed with 3.7 MBq at 37 °C and incubated them with 2 and 4 hours. See, FIG. 10B.

Regarding `COc1cc(Cc2cnc(N)nc2N)cc(I)c1OC` [[^131I]mI-TMP, 5-(3-iodo-4,5-dimethoxybenzyl)pyrimidine-2,4-diamine], the “de-iodination in hepatocyte culture” value in data set [1] (after 24 hours) is “minor de-iodination”. For the same molecule, the “de-iodination with CYP450 inhibitor” value in data set [1] (with 1-aminobenzotriazole (100 μM)) was “could be inhibited”.
Take `COc1cc(Cc2cnc(N)nc2N)cc([131I])c1OC` [[^131I]mI-TMP, 5-(3-iodo-4,5-dimethoxybenzyl)pyrimidine-2,4-diamine]: the “uptake in eDHFR tumors relative to WT tumors” value with HCT116-eDHFR tumors is on record as “twice as much”. For the same molecule, the “uptake of radiotracer in eDHFR+ cells in comparison to wild-type” value at eDHFR is “two-fold increase in uptake”.
